# Test results: patent publication US20050036977A1, “Taste-masked resinate and preparation thereof” (priority 2003, published 2005)
# Like-named read-outs stand apart in the source and are kept apart here.
# Conditions: initial risperidone 15 mg/mL, control value = solubility of risperidone
# Protocol: The resin and risperidone were added to either water, citrate-phosphate buffer at pH 5.93 or a 1.7% gelatin solution (Table 1a). The initial concentration of risperidone in the slurries was 15 mg/mL. The control consisted of risperidone in each of the three aqueous media.
# Each slurry was placed into centrifuge tubes, capped and mixed with a Burrell Wrist action shaker model 75 for 24 hours. After 24 hours, the slurry was centrifuged at a relative centrifugal force of 38,724 g for 18 minutes. The supernatant was collected, filtered through a 0.45 μl nylon filter and assayed for risperidone by an isocratic HPLC method. The concentration of drug present in the supernatant represented the amount of unbound or “free” risperidone.
smiles,measurement,setting,value
"Cc1nc2n(c(=O)c1CCN1CCC(c3noc4cc(F)ccc34)CC1)CCCC2 [Risperidone (Control), risperidone]",Concentration of Risperidone in Supernatant after 24 Hours Mixing,1.7% Gelatin,1062.1 µg/mL
same,Concentration of Risperidone in Supernatant after 24 Hours Mixing,Citrate-Phosphate Buffer (pH 5.93),4603.6 µg/mL
same,Concentration of Risperidone in Supernatant after 24 Hours Mixing,Purified Water,85.82 µg/mL
